The text below walks through data of patent US11013745B2, “Triazolopyrimidine, triazolopyridine compounds, and the composition thereof for treating PRC2-mediated diseases” (SHANGHAI INSTITUTE OF MATERIA MEDICA, CHINESE ACADEMY OF …, priority 2017, dated 2021).

One data set has as its system Pfeiffer cells. Briefly: Growth inhibition of Pfeiffer cells in a long term (14 days), CellTiter-Glo. The class given is cell-based, Human. The following applies: Homo sapiens, 336 h, 14 days, read-out: Pfeiffer (14 days) IC50. An outline of the steps:
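Pfeiffer DLBCL cells in RPMI 1640 with 10% FBS were treated for 14 days with a 9-point, three-fold compound series (final 0.003-20 μM or 0.3-2000 nM, 0.2% DMSO). Medium and compound were refreshed with cell dilution on days 4, 7 and 11. Viability was read by CellTiter-Glo luminescence, and IC50 values were calculated.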

Another data set deals with Karpas-422 cells. The experiment in a line: Growth inhibition of Karpas-422 cells in a long term (11 days), CellTiter-Glo. The following applies: Homo sapiens, 264 h; Karpas-422, 11 days; read-out: Karpas-422 (11 days) IC50. The class given is cell-based, Human.
A short description of data set [1]: Oral pharmacokinetics in rats. The class given is in vivo. The following applies: male, SD, plasma, rat, intragastric, 3 mg/kg. As to the method: 1. Healthy male SD rats were used as test animals, EED226, […]-07 (3 mg/kg) were administered intragastrically, and the drug concentrations in rat plasma were determined by LC/MS/MS method at different time points after drug administration. The pharmacokinetic behavior of the compounds of the present invention in rats was studied, and the pharmacokinetic properties were evaluated. 2. The test animals were healthy adult male SD rats, with 3 rats in each group, purchased from Shanghai Xipuer-Bikai Laboratory Animal Limited Company. 3. Drug preparation: Compounds EED226, […] were dissolved in DMSO/0.5% HPMC (5/95, v/v) for preparation. The compound SL-ZYE-07 was dissolved in 0.5% HPMC (containing 0.5% Tween 80), vortexed, and sonicated to disperse the solid matter uniformly to obtain a pale white suspension. 4, Operation: EED226, […]-07 were administered to rats by intragastric administration (3 mg/kg), 45 μL of blood was taken through the femoral vein at 0.25, 0.5, 1, 2, 4, 8, 24 hour after administration, and centrifuged in a heparinized centrifuge tube for 5 min, and the plasma samples were separated for analysis. The contents of test compounds in rat plasma after intragastric administration of different compounds were determined by Liquid chromatography-mass spectrometry (LC-MS/MS).

A short description of data set [2]: Liver microsomal stability (human). The class given is in vitro ADME. In short, it runs like this: (§1)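 Human, mouse and rat liver microsomes were incubated with NADPH and MgCl2 in 0.1 M Tris pH 7.4, with compound at a 0.2 μM working solution. Remaining compound was quantified by LC/MS over the incubation time. The slope of log remaining versus time gave Clint, which was scaled to predicted Cl, Clhep and % MF.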
(In general: Microsomes from liver hold many membrane-bound enzymes, among them those of drug oxidation.)

Data set [3] in a line: Liver microsomal stability (rat). The class given is in vitro ADME. In short, it runs like this: as §1
Data set [4] in a line: Liver microsomal stability (mouse). The class given is in vitro ADME.

On to `CS(=O)(=O)N1CC=C(c2cnc(NCc3c(F)ccc4c3CCO4)n3cnnc23)CC1` [E-Y13], for which the IC50 (in general, the concentration that inhibits the measured activity by half) in the data set on Pfeiffer cells was determined as 1 nM; in the data set with Karpas-422 cells, 13 nM. Moreover, the exposure AUC(0-t) – broadly, the area under the concentration-time curve up to a stated or last time point – in data set [1] turned out to be 529 ± 150 ng·h/mL. The AUC(0-inf) in data set [1] (extrapolated to infinity, read-out: AUCINF_obs) was 539 ± 150 ng·h/mL. In addition, the MRT inf in data set [1] (read-out: Average residence time MRTINF_obs) worked out at 2.06 ± 0.484 h. For the same compound, the half-life was 82.2 ± 12.7 min in data set [1] (read-out: Half life T1/2 (converted)); 92.8 min in data set [2] (human, liver microsomes, pH 7.4, human liver microsomes, read-out: Half life T-half); 55.2 min in data set [3] (rat, liver microsomes, pH 7.4, rat liver microsomes, read-out: Half life T-half); 94.6 min in data set [4] (mouse, liver microsomes, pH 7.4, mouse liver microsomes, read-out: Half life T-half). The Cmax in data set [1] (read-out: Peak concentration Cmax) was determined as 376 ± 273 ng/mL. The “Clearance rate in vivo Clint In Vivo Extpl” value in data set [2] (human liver microsomes) came to 1732 mL/min; in data set [3] (rat liver microsomes) it was 15.9 mL/min; in data set [4] (mouse liver microsomes), 1.50 mL/min. Also, the “Intrinsic clearance rate in vivo Clint In Vitro” value in data set [2] (human liver microsomes) is 22.6 mL/min/gprot; in data set [3] (rat liver microsomes), 35.2 mL/min/gprot; in data set [4] (mouse liver microsomes) it was 22.2 mL/min/gprot. Further, the “Liver clearance rate Clint Hep In Vivo Extpl” value in data set [2] (human liver microsomes) was found to be 804 mL/min; in data set [3] (rat liver microsomes) it was 8.85 mL/min; in data set [4] (mouse liver microsomes) it was 1.00 mL/min. Further, in data set [2] (human, liver microsomes, pH 7.4, human liver microsomes, read-out: Metabolic bioavailability MF %), the bioavailability – broadly, dose-corrected exposure relative to a reference, in per cent – is 46.4%. Also, the “Metabolic bioavailability MF %” value came to 53.9% in data set [3] (rat liver microsomes) and 66.7% in data set [4] (mouse liver microsomes).
